Source: patent US20220151230A1, “SPECIFICALLY SUBSTITUTED 3-(2-HALOGEN-6-ALKYL-4-PROPINYLPHENYL)-3-PYRROLIN-2-ONES AND TO THE USE THEREOF AS HERBICIDES” (Bayer Aktiengesellschaft, priority 2019, published 2022)

Key:
[1] = system: DIGSA; experiment: Pre-emergence herbicidal effect against DIGSA; format: in vivo, Digitaria sanguinalis; conditions: 320 g/ha, scored visually after 3 weeks vs untreated controls, 100% = plants have died
Description: (§1) Seeds of monocotyledonous and dicotyledonous weed plants and crop plants are laid out in sandy loam soil in wood-fiber pots and covered with soil. The compounds of the invention, formulated in the form of wettable powders (WP) or as emulsion concentrates (EC), are then applied to the surface of the covering soil as aqueous suspension or emulsion at a water application rate equating to 600 to 800 L/ha with addition of 0.2% wetting agent.
(§2) After the treatment, the pots are placed in a greenhouse and kept under good growth conditions for the trial plants. The damage to the test plants is scored visually after a test period of 3 weeks by comparison with untreated controls (herbicidal activity in percent (%): 100% activity=the plants have died, 0% activity=like control plants).

[2] = system: ECHCG; experiment: Post-emergence herbicidal effect against ECHCG; format: in vivo, Echinochloa crus-galli; conditions: one-leaf stage, 80 g/ha, assessed visually after about 3 weeks vs untreated controls, 100% = plants have died
Description: (§3) Seeds of monocotyledonous and dicotyledonous weed and crop plants are laid out in sandy loam soil in wood-fiber pots, covered with soil and cultivated in a greenhouse under good growth conditions. 2 to 3 weeks after sowing, the test plants are treated at the one-leaf stage. The compounds of the invention, formulated in the form of wettable powders (WP) or as emulsion concentrates (EC), are then sprayed onto the green parts of the plants as aqueous suspension or emulsion at a water application rate equating to 600 to 800 l/ha with addition of 0.2% wetting agent. After the test plants have been left to stand in the greenhouse under optimal growth conditions for about 3 weeks, the action of the preparations is assessed visually in comparison to untreated controls (herbicidal action in percent (%): 100% activity=the plants have died, 0% activity=like control plants).

[3] = system: ALOMY; experiment: Post-emergence herbicidal effect against ALOMY; format: in vivo, Alopecurus myosuroides; conditions: one-leaf stage, 80 g/ha, assessed visually after about 3 weeks vs untreated controls, 100% = plants have died
Description: as §3

[4] = system: AVEFA; experiment: Post-emergence herbicidal effect against AVEFA; format: in vivo, Avena fatua; conditions: one-leaf stage, 80 g/ha, assessed visually after about 3 weeks vs untreated controls, 100% = plants have died
Description: as §3

[5] = system: LOLRI; experiment: Pre-emergence herbicidal effect against LOLRI; format: in vivo, Lolium rigidum; conditions: 320 g/ha, scored visually after 3 weeks vs untreated controls, 100% = plants have died
Description: as §1, §2

[6] = system: AVEFA; experiment: Pre-emergence herbicidal effect against AVEFA; format: in vivo, Avena fatua; conditions: 320 g/ha, scored visually after 3 weeks vs untreated controls, 100% = plants have died
Description: as §1, §2

[7] = system: LOLRI; experiment: Post-emergence herbicidal effect against LOLRI; format: in vivo, Lolium rigidum; conditions: one-leaf stage, 80 g/ha, assessed visually after about 3 weeks vs untreated controls, 100% = plants have died
Description: as §3

[8] = system: SETVI; experiment: Post-emergence herbicidal effect against SETVI; format: in vivo, Setaria viridis; conditions: one-leaf stage, 80 g/ha, assessed visually after about 3 weeks vs untreated controls, 100% = plants have died
Description: as §3

[9] = system: ALOMY; experiment: Pre-emergence herbicidal effect against ALOMY; format: in vivo, Alopecurus myosuroides; conditions: 320 g/ha, scored visually after 3 weeks vs untreated controls, 100% = plants have died
Description: as §1, §2

[10] = system: SETVI; experiment: Pre-emergence herbicidal effect against SETVI; format: in vivo, Setaria viridis; conditions: 320 g/ha, scored visually after 3 weeks vs untreated controls, 100% = plants have died
Description: as §1, §2

[11] = system: ECHCG; experiment: Pre-emergence herbicidal effect against ECHCG; format: in vivo, Echinochloa crus-galli; conditions: 320 g/ha, scored visually after 3 weeks vs untreated controls, 100% = plants have died
Description: as §1, §2

[12] = system: DIGSA; experiment: Post-emergence herbicidal effect against DIGSA; format: in vivo, Digitaria sanguinalis; conditions: one-leaf stage, 80 g/ha, assessed visually after about 3 weeks vs untreated controls, 100% = plants have died
Description: as §3

SMILES	Pre-emergence action [%] against DIGSA [1] [%]	Post-emergence action [%] against ECHCG [2] [%]	Post-emergence action [%] against ALOMY [3] [%]	Post-emergence action [%] against AVEFA [4] [%]	Pre-emergence action [%] against LOLRI [5] [%]	Pre-emergence action [%] against AVEFA [6] [%]	Post-emergence action [%] against LOLRI [7] [%]	Post-emergence action [%] against SETVI [8] [%]	Pre-emergence action [%] against ALOMY [9] [%]	Pre-emergence action [%] against SETVI [10] [%]	Pre-emergence action [%] against ECHCG [11] [%]	Post-emergence action [%] against DIGSA [12] [%]
CC#Cc1cc(Cl)c(C2=C(OC(=O)OCC)C3(CCC(OC)CC3)NC2=O)c(C2CC2)c1 (centres unmarked) [Example P33]	100	100	100	100	100	100	100	100	100	100	100	–
CC#Cc1cc(Br)c(C2=C(OC(=O)OCC)C3(CCCC(OCCOC)C3)NC2=O)c(C2CC2)c1 (centres unmarked) [Example Q2]	100	100	100	–	100	100	100	100	100	100	100	100
CC#Cc1cc(Cl)c(C2=C(OC(=O)OC)C3(CCC(OC)CC3)NC2=O)c(CC)c1 (centres unmarked) [Example P24]	100	100	100	90	100	100	–	100	100	100	90	90
CC#Cc1cc(Cl)c(C2=C(OC(=O)OCC)C3(CCC(OCC)CC3)NC2=O)c(CC)c1 (centres unmarked) [Example P22]	100	90	–	–	100	90	–	100	100	100	100	90
CC#Cc1cc(C)c(C2=C(OC(=O)OCC)C3(CCCC(OCCC)C3)NC2=O)c(Br)c1 (centres unmarked) [Example Q3]	100	100	100	–	100	100	100	100	100	100	100	100
CC#Cc1cc(Br)c(C2=C(OC(=O)OCC)C3(CCC(OC)CC3)NC2=O)c(C2CC2)c1 (centres unmarked) [Example P35]	100	100	100	–	100	100	100	100	100	100	100	100
CC#Cc1cc(Cl)c(C2=C(OC(=O)OC(C)(C)C)C3(CCC(OC)CC3)NC2=O)c(CC)c1 (centres unmarked) [Example P30]	100	–	90	80	100	80	–	100	100	100	90	–
CC#Cc1cc(C)c(C2=C(OC(=O)OCC)C3(CCCC(OCCOC)C3)NC2=O)c(Br)c1 (centres unmarked) [Example Q4]	100	100	100	90	100	100	100	100	100	100	100	–
CC#Cc1cc(Cl)c(C2=C(OC(=O)C(C)C)C3(CCC(OC)CC3)NC2=O)c(CC)c1 (centres unmarked) [Example P25]	100	100	90	–	90	100	–	100	100	100	100	100
CC#Cc1cc(C)c(C2=C(OC(=O)OCC)C3(CCCC(OCC(C)C)C3)NC2=O)c(Cl)c1 (centres unmarked) [Example Q8]	100	100	100	100	100	100	90	100	100	100	100	–
CC#Cc1cc(Br)c(C2=C(O)C3(CCCC(OCCOC)C3)NC2=O)c(CC)c1 (centres unmarked) [Example D8]	–	90	100	80	–	–	80	90	80	100	–	–
CC#Cc1cc(Cl)c(C2=C(OC(=O)OC)C3(CCC(OCC)CC3)NC2=O)c(CC)c1 (centres unmarked) [Example P26]	100	100	90	–	100	90	–	90	100	100	90	80
